Where only a bound is given, the exact number is not on record here.

Sequence of IRAK4 protein in THP-1 cells (Q9NWZ3 whole entry): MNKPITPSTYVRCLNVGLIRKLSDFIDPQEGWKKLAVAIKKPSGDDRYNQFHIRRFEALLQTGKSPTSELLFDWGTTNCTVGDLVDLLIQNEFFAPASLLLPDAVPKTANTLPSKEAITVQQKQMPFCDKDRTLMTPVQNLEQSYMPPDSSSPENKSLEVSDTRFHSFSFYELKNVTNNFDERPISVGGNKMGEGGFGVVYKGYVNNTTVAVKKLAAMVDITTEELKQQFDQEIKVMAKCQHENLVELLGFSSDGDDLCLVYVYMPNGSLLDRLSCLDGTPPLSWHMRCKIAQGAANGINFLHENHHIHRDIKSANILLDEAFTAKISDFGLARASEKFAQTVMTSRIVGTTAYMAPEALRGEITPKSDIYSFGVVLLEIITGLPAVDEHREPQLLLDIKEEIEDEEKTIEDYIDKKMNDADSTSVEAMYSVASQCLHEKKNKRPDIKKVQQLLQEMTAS

For the first assay, the target named is kinase IRAK4 (Homo sapiens (Human), UniProt Q9NWZ3). Nature of the assay: Inhibitory effects of compounds on kinase activity (fluorescence microfluidic mobility detection, competitive with ATP). It counts as biochemical. The following applies: Table 2; IRAK4 6 nM, ATP 10 μM, substrate FAM-P8 3 μM. As to the method: Based on an experimental method of fluorescence microfluidic mobility detection, an IC50 value of competitive binding of kinase IRAK4 to ATP by the compounds was determined. The initial detection concentration of the compounds was 10 μM, diluted 4-fold gradient down to […], and tested in duplicate. Among them, commercial staurosporine was the standard control substance in this experiment.
Sequence of kinase IRAK4 (Q9NWZ3 whole entry): as above
1) IRAK4 kinase was dissolved in kinase buffer (50 mM HEPES pH 7.5, 10 mM MgCl2, 2 mM DTT and 0.01% Brij-35) to a final concentration of 6 nM.
2) The substrate peptide FAM-P8 and ATP were dissolved in the above kinase buffer. The final concentrations of the IRAK4 substrate peptide FAM-P8 and ATP were 3 μM and 10 μM respectively.
3) Dilution of the compounds: the compound was first diluted to 50 μM, and then diluted down with a 4-fold gradient of DMSO. The solution without the compound and kinase is used as a blank control, corresponding to the “minimum value” shown below; and the solution without the compound but with kinase, adenosine 5′-triphosphate disodium salt hydrate, DMSO and buffer is used as a positive control, corresponding to the “maximum value” shown below. 4) Kinase reaction and termination: 10 μL of kinase buffer was added to a 384-well plate containing 5 μL of the compound to be tested, and incubated at room temperature for 10 minutes. Another 10 μL of buffer containing the substrate peptide and adenosine 5′-triphosphate disodium salt hydrate was added to the 384-well plate. After incubation at 28° C. for one hour, 25 μL stop solution (100 mM HEPES pH 7.5, 50 mM EDTA, 0.2% Coating Reagent #3 and 0.015% Brij-35) was added to each well to terminate the reaction.
5) Data reading: the CaliperEZ Reader II instrument was used to read the conversion rate data. Conditions: downstream voltage −500V, upstream voltage −2250V, base pressure −0.5 PSI, and screening pressure −1.2 PSI.
6) Data calculation: the conversion rate data was copied from CaliperEZ Reader II and converted into inhibition rate data. The calculation formula is as follows:
[formula] • IC50 values were fitted using XLFit excel add-in version 5.4.0.8,
Y=Bottom+(Top−Bottom)/(1+(IC50/X)^HillSlope) Fitting formula: […]
A word on the IC50: it is the concentration at which inhibition is half-maximal. `COc1cc2nn(C3CC4(CCN(C(=O)[C@H]5CC[C@H](Oc6ccc7c(c6)C(=O)N(C6CCC(=O)NC6=O)C7=O)CC5)CC4)C3)cc2cc1NC(=O)c1cccc(C(F)(F)F)n1` (stereo partly shown) [Compound I-31] gave an IC50 of 34 nM.
The same measure, in the same setting: next, `O=C1CCC(N2C(=O)c3ccc(N4CCC(C(=O)N5CCC6(CC5)CC(n5cc7cc(NC(=O)c8cccc(C(F)(F)F)n8)c(F)cc7n5)C6)CC4)cc3C2=O)C(=O)N1` (stereo not shown) [Compound I-53]: 138 nM.
Still for that read-out and setting: to `COc1cc2nn(C3CC4(CCN(C(=O)C5CCN(c6ccc7c(c6)C(=O)N(C6CCC(=O)NC6=O)C7=O)CC5)CC4)C3)cc2cc1NC(=O)c1ccn(C(F)F)n1` (stereo not shown) [Compound I-47] belongs 9.17 nM.
On the same count and under the same terms, to `O=C1CCC(N2C(=O)c3ccc(N4CCC(C(=O)N5CCC6(CC5)CC(n5cc7cc(NC(=O)c8cccc(C(F)(F)F)n8)c(N8CCOCC8)cc7n5)C6)CC4)cc3C2=O)C(=O)N1` (stereo not shown) [Compound I-9] belongs 32.9 nM; to `COc1cc2nn(C3CC4(CCN(C(=O)C5CCN(c6cccc7c6C(=O)N(C6CCC(=O)NC6=O)C7=O)CC5)CC4)C3)cc2cc1NC(=O)c1cccc(C(F)(F)F)n1` (stereo not shown) [Compound I-25], 20.4 nM.
`COc1cc2nn(C3CC4(C3)CN(C(=O)C3CCN(c5ccc6c(c5)C(=O)N(C5CCC(=O)NC5=O)C6=O)CC3)C4)cc2cc1NC(=O)c1cccc(C(F)(F)F)n1` (stereo not shown) [Compound I-14] displayed an IC50 of 16.6 nM.
On the same count and under the same terms, to `COc1cc2nn(C3CC4(CCN(C(=O)C5CCN(c6ccc7c(c6)C(=O)N([C@H]6CCC(=O)NC6=O)C7=O)CC5)CC4)C3)cc2cc1NC(=O)c1cccc(C(F)(F)F)n1` [Compound I-65] belongs 26.3 nM; to `COc1cc2nn(C3CC4(CCN(C5CCN(C(=O)c6ccc7c(c6)C(=O)N(C6CCC(=O)NC6=O)C7=O)CC5)CC4)C3)cc2cc1NC(=O)c1cccc(C(F)(F)F)n1` (stereo not shown) [Compound I-51], 5.33 nM.
With `COc1cc2nn(C3CC4(CCN(C(=O)C5CCN(c6cc7c(cc6F)C(=O)N(C6CCC(=O)NC6=O)C7=O)CC5)CC4)C3)cc2cc1NC(=O)c1cccc(N2CCOCC2)n1` (stereo not shown) [Compound I-46], the IC50 stood at 17.7 nM.
The same measure, in the same setting: to `COc1cc2nn(C3CC4(CCN(C(=O)C5CCN(c6ccc7c(c6)C(=O)N(C6CCC(=O)NC6=O)C7=O)CC5)CC4)C3)cc2cc1NC(=O)c1coc(-c2ccnc(C)c2)n1` (stereo not shown) [Compound I-36] belongs 12.4 nM.
On the same count and under the same terms, to `COc1cc2nn(C3CC4(CCN(C(=O)C5CCN(c6ccc7c(c6)C(=O)N([C@@H]6CCC(=O)NC6=O)C7=O)CC5)CC4)C3)cc2cc1NC(=O)c1cccc(C(F)(F)F)n1` [Compound I-66] belongs 25.3 nM.

A further assay addresses IRAK4 protein in THP-1 cells (Homo sapiens (Human), UniProt Q9NWZ3). In words: PROTAC-induced IRAK4 protein degradation in THP-1 cells (Western Blot). The following applies: concentration that degraded 50% of IRAK4, Western blotting, 24 hours after administration. It counts as cell-based. As to the method: 2.1 Based on the experimental method of Western Blot, specific antibodies were used to stain the THP-1 cell samples treated by gel electrophoresis, and the degrading activity of the compounds on the IRAK4 protein in THP-1 cells was determined by analyzing the position and depth of staining. The concentrations of compound for the detection included 0 μM, 0.3 μM, 1 μM and 3 μM, and the cells were treated by the compound for 8 hours, 16 hours, 24 hours, and 48 hours. Glyceraldehyde-3-phosphate dehydrogenase (GAPDH) is an internal reference protein in this experiment.
Electrophoresis buffer: 50 mL MOPS SDS Running Buffer (20×) and 50 mL 20×TBS Tween-20 buffer were diluted with deionized water to 1 L as the electrophoresis buffer;
5% skim milk (w/v): 2.5 g skim milk was diluted with 50 mL 1×TBS Tween-20 buffer to prepare 5% skim milk;
5% BSA (w/v): 2.5 g BSA was diluted with 50 mL 1×TBS Tween-20 buffer to prepare 5% BSA;
Anti-IRAK4 antibody was diluted with 5% BSA at 1:1000 into a primary antibody working solution;
Goat Anti-Rabbit IgG H&L (HRP) was diluted with 5% BSA at 1:2000 into a second antibody working solution; and
Goat Anti-Mouse IgG H&L (HRP) was diluted with 5% BSA at 1:2000 into a second antibody working solution.
THP-1 cells were plated in a 6-well plate at a density of 1.5×10^6 cells per ml and incubated for 2 hours in a cell culture incubator under 37° C. and 5% CO2. The compound was diluted with DMSO to 0.6 mM, 0.2 mM and 0.06 mM respectively. 10 μL of compound solution was added to the corresponding wells, and continued to incubate in the incubator for 16 hours, 24 hours and 48 hours respectively. The compound-treated THP-1 cells in the well were collected, added with 120 μL of RIPA lysate containing protease inhibitor, Phosphatase Inhibitor Cocktail 2 and Phosphatase Inhibitor Cocktail 3, lysed on wet ice for 30 minutes, and then the cells lysate was centrifuged at a high speed and a low temperature for 5 minutes to collect the supernatant. The protein concentration of the cell sample was determined according to the instructions in the Pierce™ BCA Protein Assay Kit.
The concentration of the sample was adjusted to be consistent using lysis buffer and NuPAGE® LDS sample buffer containing 1M DTT. The samples were heated at 95° C. for 5 minutes and centrifuged at a low temperature and at a high speed. 20 μL of the prepared protein sample and 4 μL of PageRuler Prestained Protein Ladder were added into the gel well for running at 80V voltage for 0.5 hours, then the voltage was adjusted to 120V for further running for 1.5 hours. The gel was removed and the proteins in the gel were transferred to the IBlotTM 2 transfer membrane set at 20V. After successful transfer, bands at 65 kDa-40 kDa and 40 kDa-30 kDa were cut respectively. The membranes were blocked with 5% skim milk for 1 hour at room temperature. The membranes were washed three times with 1× concentration of TBST, then incubated with IRAK4 antibody working solution overnight at 4° C. The IRAK4 antibody working solution was discarded, and the membranes were washed three times with 1×concentration of TBST, and incubated with Goat Anti-Rabbit IgG H&L (HRP) working solution and Goat Anti-Mouse IgG H&L (HRP) working solution at room temperature. After 1 hour of incubation, the antibody working solution was discarded and the membranes were washed three times with 1× concentration of TBST. According to the instructions of the kit SuperSignal™ West Femto Maximum Sensitivity Substrate, the reagents in the kit were mixed in equal volume proportions to prepare a luminescent liquid mixture. The membranes were incubated for 1 minute, then removed for exposure.
The results of Western blotting 24 hours after administration of the compounds with a concentration of 1 μM were shown in Table 3: […]
A general note: In western blotting, separated proteins are transferred to a membrane and probed.
By DC50 is commonly meant the concentration at which degradation of the target reaches its halfway point. A low value points to a more potent degrader. The compound `COc1cc2nn(C3CC4(CCN(C(=O)[C@H]5CC[C@H](Oc6ccc7c(c6)C(=O)N(C6CCC(=O)NC6=O)C7=O)CC5)CC4)C3)cc2cc1NC(=O)c1cccc(C(F)(F)F)n1` (stereo partly shown) [Compound I-31] had a 50% degradation concentration (DC50) of 47.3 nM.
The same measure, in the same setting: next, `O=C1CCC(N2C(=O)c3ccc(N4CCC(C(=O)N5CCC6(CC5)CC(n5cc7cc(NC(=O)c8cccc(C(F)(F)F)n8)c(F)cc7n5)C6)CC4)cc3C2=O)C(=O)N1` (stereo not shown) [Compound I-53]: over 1000 nM.
The same measure, in the same setting: next, `COc1cc2nn(C3CC4(CCN(C(=O)C5CCN(c6ccc7c(c6)C(=O)N(C6CCC(=O)NC6=O)C7=O)CC5)CC4)C3)cc2cc1NC(=O)c1ccn(C(F)F)n1` (stereo not shown) [Compound I-47]: 5.53 nM; `O=C1CCC(N2C(=O)c3ccc(N4CCC(C(=O)N5CCC6(CC5)CC(n5cc7cc(NC(=O)c8cccc(C(F)(F)F)n8)c(N8CCOCC8)cc7n5)C6)CC4)cc3C2=O)C(=O)N1` (stereo not shown) [Compound I-9]: 12 nM; `COc1cc2nn(C3CC4(CCN(C(=O)C5CCN(c6cccc7c6C(=O)N(C6CCC(=O)NC6=O)C7=O)CC5)CC4)C3)cc2cc1NC(=O)c1cccc(C(F)(F)F)n1` (stereo not shown) [Compound I-25]: over 1000 nM.
As to `COc1cc2nn(C3CC4(C3)CN(C(=O)C3CCN(c5ccc6c(c5)C(=O)N(C5CCC(=O)NC5=O)C6=O)CC3)C4)cc2cc1NC(=O)c1cccc(C(F)(F)F)n1` (stereo not shown) [Compound I-14], the DC50 is 12.6 nM.
The same measure, in the same setting: next, `COc1cc2nn(C3CC4(CCN(C(=O)C5CCN(c6ccc7c(c6)C(=O)N([C@H]6CCC(=O)NC6=O)C7=O)CC5)CC4)C3)cc2cc1NC(=O)c1cccc(C(F)(F)F)n1` [Compound I-65]: 3.71 nM; `COc1cc2nn(C3CC4(CCN(C5CCN(C(=O)c6ccc7c(c6)C(=O)N(C6CCC(=O)NC6=O)C7=O)CC5)CC4)C3)cc2cc1NC(=O)c1cccc(C(F)(F)F)n1` (stereo not shown) [Compound I-51]: 149 nM.
In turn, `COc1cc2nn(C3CC4(CCN(C(=O)C5CCN(c6cc7c(cc6F)C(=O)N(C6CCC(=O)NC6=O)C7=O)CC5)CC4)C3)cc2cc1NC(=O)c1cccc(N2CCOCC2)n1` (stereo not shown) [Compound I-46] showed a DC50 of 9.15 nM.
For the compound `COc1cc2nn(C3CC4(CCN(C(=O)C5CCN(c6ccc7c(c6)C(=O)N(C6CCC(=O)NC6=O)C7=O)CC5)CC4)C3)cc2cc1NC(=O)c1coc(-c2ccnc(C)c2)n1` (stereo not shown) [Compound I-36], the DC50 amounted to 1.16 nM.
On the same count and under the same terms, to `COc1cc2nn(C3CC4(CCN(C(=O)C5CCN(c6ccc7c(c6)C(=O)N([C@@H]6CCC(=O)NC6=O)C7=O)CC5)CC4)C3)cc2cc1NC(=O)c1cccc(C(F)(F)F)n1` [Compound I-66] belongs 3.14 nM.

The record behind these values is patent publication US20240423977A1, “FIVE-MEMBERED RING-FUSED SIX-MEMBERED RING COMPOUND, PREPARATION METHOD THEREFOR, AND PHARMACEUTICAL COMPOSITION AND USE THEREOF” (HANGZHOU POLYMED BIOPHARMACEUTICALS, INC., priority 2022, published 2024).
